Experimental data from patent US6653286B1, “Gonadotropin releasing hormone antagonist” (Akzo Nobel NV, priority 1997, dated 2003).
Square brackets hold non-standard residues; d marks the D form. Peptide text beside a SMILES is read from it. d(hArg(Et2)) = CCN=C(NCC)NCCCC[C@@H](N)C(=O)O; hArg(Et2) = CCN=C(NCC)NCCCC[C@H](N)C(=O)O; dPhe(4-Cl) = N[C@H](Cc1ccc(Cl)cc1)C(=O)O; d2Nal = N[C@H](Cc1ccc2ccccc2c1)C(=O)O; d3Pal = N[C@H](Cc1cccnc1)C(=O)O

How the values were obtained:
premature LH surges = experiment: phase II double-blind dose-finding study of ganirelix in women undergoing controlled ovarian hyperstimulation with recFSH; assay type: in vivo, human
Protocol: In order to establish the minimum effective dose of ganirelix to prevent premature LH surges in women undergoing COH with recombinant FSH, a double-blind dose-finding study was performed with 6 test doses ranging between 2 mg and 0.0625 mg ganirelix.
This study was a phase II, multi-centre, double-blind, randomized, dose-finding study to assess the efficacy of the GnRH-antagonist ganirelix to prevent premature LH surges in women undergoing controlled ovarian hyperstimulation with recFSH. The dosages of ganirelix are administered by one daily SC administration.
RecFSH treatment started on day 2 of the menstrual cycle (treatment day -5) by a once daily SC injection. From treatment day -5 through day -1 the dose of recFSH was fixed at 150 IU daily. After 5 days of recFSH treatment (day 7 of the menstrual cycle), ganirelix treatment was started by daily SC administration. Treatment continued until and including the last day of recFSH administration. During ganirelix treatment, the dose of recFSH was adjusted depending on the individual ovarian response as assessed by daily ultra sonographic scan (USS). As soon as at least 3 folicles ≧17 mm measured by USS were observed, hCG was administered for ovulation induction. About 30-36 hours thereafter oocyte pick-up was performed followed by in vitro fertilization (IVF) with or without intracytoplasmic sperm injection (ICSI). No more than 3 embryos were replaced.
If during ganirelix treatment a premature LH rise occurred e.g. at least one value of serum LH ≧15 IU/L according to the local LH immunoassay the investigator canceled the cycle or tried to rescue the cycle by giving hCG prematurely. In addition, the investigator notified the sponsor about the occurrence of the LH rise and the central laboratory was requested to confirm the LH rise was ≧10 IU/L according to the central LH immunoassay. Subsequently, all data of such subject with a premature LH rise were forwarded to an Independent Advisory Committee which was installed in order to advice on stopping a treatment arm in case of LH rises during ganirelix treatment.
During the study, some investigators informed the sponsor on one or more cases of extremely low serum LH and failing estradiol concentrations as well as follicle growth arrest after starting ganirelix treatment. For this reason the External Independent Advisory Committee was requested to review all clinical data available in order to evaluate whether these observations were dose related and whether, in their opinion, there was reason to stop one or more treatment arms.
In addition, the Independent Advisory Committee reviewed all rises of LH (≧15 IU/L according to the local LH immunoassay and ≧10 IU/L according to the central LH immunoassay) during ganirelix treatment. Based on their evaluation the External Committee advised the sponsor to stop the highest (2 mg) and lowest (0.0625 mg) treatment dose of ganirelix. The study was completed for the other dosage groups.
In total 333 subjects started recFSH treatment and 332 subjects started ganirelix treatment. Because of major protocol violation 3 subjects were excluded from the analysis. The final number of patients per dosing group are included in Table 1.

pituitary-gonadal axis = conditions: cited from earlier work

SMILES: CCN=C(NCC)NCCCC[C@H](NC(=O)[C@H](CC(C)C)NC(=O)[C@@H](CCCCNC(=NCC)NCC)NC(=O)[C@H](Cc1ccc(O)cc1)NC(=O)[C@H](CO)NC(=O)[C@@H](Cc1cccnc1)NC(=O)[C@@H](Cc1ccc(Cl)cc1)NC(=O)[C@@H](Cc1ccc2ccccc2c1)NC(C)=O)C(=O)N1CCC[C@H]1C(=O)N[C@H](C)C(N)=O [ganirelix, N-Acetyl-3-(2-naphtyl)-D-alanyl-4-chloro-D-phenylalanyl-3-(3-pyridyl)-D-alanyl-L-seryl-L-tyrosyl-N^ω,N^ω-diethyl-D-homoarginyl-L-leucin-N^ω,N^ω-diethyl-Lhomoarginyl-L-propyl-D-alanylamide acetate] (Ac-[d2Nal][dPhe(4-Cl)][d3Pal]SY[d(hArg(Et2))]L[hArg(Et2)]P[dA]-NH2)
- Median serum E2 (estradiol) at the day of hCG (= last day of ganirelix) (premature LH surges; 0.0625 mg daily SC): 1475 pg/mL
- Median serum LH at the day of hCG (= last day of ganirelix) (premature LH surges; 0.0625 mg daily SC): 3.56 IU/L
- Incidence of LH rises (premature LH surges; 0.0625 mg daily SC, N = 31, number of subjects (%)): 5 (16%)
- Serum ganirelix concentration versus dose (premature LH surges; 0.0625 mg to 2 mg daily SC): increased in a dose-proportional manner
- Median serum E2 (estradiol) at the day of hCG (= last day of ganirelix) (premature LH surges; 0.125 mg daily SC): 1130 pg/mL
- Median serum LH at the day of hCG (= last day of ganirelix) (premature LH surges; 0.125 mg daily SC): 2.46 IU/L
- Incidence of LH rises (premature LH surges; 0.125 mg daily SC, N = 65, number of subjects (%)): 6 (9.2%)
- Median serum E2 (estradiol) at the day of hCG (= last day of ganirelix) (premature LH surges; 0.25 mg daily SC): 1160 pg/mL
- Median serum LH at the day of hCG (= last day of ganirelix) (premature LH surges; 0.25 mg daily SC): 1.73 IU/L
- Incidence of LH rises (premature LH surges; 0.25 mg daily SC, N = 69, number of subjects (%)): 1 (1.4%)
- Median serum E2 (estradiol) at the day of hCG (= last day of ganirelix) (premature LH surges; 0.5 mg daily SC): 823 pg/mL
- Median serum LH at the day of hCG (= last day of ganirelix) (premature LH surges; 0.5 mg daily SC): 1.02 IU/L
- Incidence of LH rises (premature LH surges; 0.5 mg daily SC, N = 69, number of subjects): 0
- Median serum E2 (estradiol) at the day of hCG (= last day of ganirelix) (premature LH surges; 1 mg daily SC): 703 pg/mL
- Median serum LH at the day of hCG (= last day of ganirelix) (premature LH surges; 1 mg daily SC): 0.57 IU/L
- Incidence of LH rises (premature LH surges; 1 mg daily SC, N = 65, number of subjects): 0
- Median serum E2 (estradiol) at the day of hCG (= last day of ganirelix) (premature LH surges; 2 mg daily SC): 430 pg/mL
- Median serum LH at the day of hCG (= last day of ganirelix) (premature LH surges; 2 mg daily SC): 0.34 IU/L
- Incidence of LH rises (premature LH surges; 2 mg daily SC, N = 30, number of subjects): 0
- miscarriage rate (premature LH surges; 2 mg dose group): 13%
- vital pregnancy rate per attempt (premature LH surges; 2 mg dose group, per attempt (those who started hormonal treatment)): 3.8%
- vital pregnancy rate per transfer (premature LH surges; 2 mg dose group, per transfer (those who had embryo transfer)): 4.3%
- suppression of the pituitary-gonadal axis (pituitary-gonadal axis; 1 mg or 2 mg daily SC for 8 consecutive days, reproductive age women): rapid, profound, reversible suppression
- maximal mean LH suppression (pituitary-gonadal axis; 8 h after the first injection, 1 mg or 2 mg daily SC): approximately 60%
